{"source": "patent US20160044917A1", "about": "“LOW ENVIRONMENTAL IMPACT PESTICIDE MADE FROM \"GRAS\" INGREDIENTS FOR USE AGAINST COQUI FROGS AND OTHER SPECIES” (priority 2015, published 2016)", "key": {"common plants": {"test_system": "common plants", "conditions": "citric acid 25%, three days after treatment, cited from earlier work"}, "frogs": {"test_system": "frogs", "test": "Frog killing time with different concentrations", "type": "in vivo", "conditions": "concentrations from about 5% to about 10%", "experimental": "Additionally, this formulation killed 10 out of 10 frogs within about 15 minutes. More over, concentrations using proprionic acid ranging from about 5% to about 10% were lethal to the frogs in the test group."}, "human skin": {"test_system": "human skin", "test": "Contact of acid solution with human skin or hand", "type": "in vivo", "conditions": "solution with a pH of less than 0.5", "experimental": "As discussed above, AGIIS has relatively less dehydrating properties (such as charring sucrose) as compared to the saturated solution of CaSO4 in the same concentration of H2SO4. […] AGIIS has low volatility at room temperature and pressure.\nIn view of the need to find new phytogenic friendly alternatives for controlling the spread of Coqui frogs, a commercially available food sanitation product (i.e. Acidic Calcium Sulfate (“ACS”) was evaluated for inclusion in the current inventory of chemicals that can be applied as sprays. ACS and functional equivalents thereof are made from ingredients that are generally regarded as safe (“GRAS”), and is approved for use in food by the FDA and USDA. Although not wanting to be bound by theory, the efficacy of this product stems from its very unique characteristic of being able to donate a very high activity of hydrogen ions (low pH), while at the same time, having very low oxidative effects on plants and human skin. For example, a five (5) normal concentration of ACS having a pH of approximately zero may be held in the human hand without harm to the person holding the acid. In contrast, when very small amounts are applied to the skin of Coqui frogs it is quickly absorbed and respiration is immediately impaired with lethal results. […]"}}, "note": "Like-named read-outs stand apart in the source and are kept apart here.", "data": [{"smiles": "O=C(O)CC(O)(CC(=O)O)C(=O)O", "note": "[citric acid]", "values": [{"measurement": "phytotoxicity rating", "setting": "common plants; bromeliad", "value": "moderate"}, {"measurement": "phytotoxicity rating", "setting": "common plants; calathea", "value": "severe"}, {"measurement": "phytotoxicity rating", "setting": "common plants; dendrobium orchid", "value": "moderate"}, {"measurement": "phytotoxicity rating", "setting": "common plants; eggplants", "value": "severe"}, {"measurement": "phytotoxicity rating", "setting": "common plants; guava plant", "value": "moderate"}, {"measurement": "phytotoxicity rating", "setting": "common plants; leatherleaf fern", "value": "moderate"}, {"measurement": "phytotoxicity rating", "setting": "common plants; passion fruit", "value": "slight"}, {"measurement": "phytotoxicity rating", "setting": "common plants; payaya", "value": "slight"}, {"measurement": "phytotoxicity rating", "setting": "common plants; streptocarpus", "value": "severe"}]}, {"smiles": "CCC(=O)O", "note": "[propionic acid]", "values": [{"measurement": "lethality to the frogs in the test group", "setting": "frogs", "value": "lethal"}]}, {"smiles": "O=S(=O)(O)O", "note": "[sulfuric acid]", "values": [{"measurement": "effect on hand put into the solution", "setting": "human skin", "value": "an irritation would occur"}]}]}
